This is an account of results in patent US4049660A, “N-substituted derivatives of 4 (N-piperazinylmethyl) spiro dibenzocycloheptadi- (or tri-) ene-5, 2-dioxolane (1,3) their method of preparation and their application in therapeutics” (Delalande S.A., priority 1971, dated 1977).

Read-outs that look alike come from different tables or passages of the source. Where only a bound is given, the exact number is not on record here.

Usually mortality stands for the percentage killed.

Series [1] deals with explorations in the escape enclosure. As to the kind of experiment: Sedative: number of explorations in the escape enclosure, mouse. In kind it is in vivo. The note with it: 100 mg/kg/PO. Here is the method: The compounds of formula (I) administered orally to a mouse reduce the number of explorations in the escape enclosure. As examples, the administration of 100 mg/kg/PO of the compounds of code numbers 71562 and 72142 bring about a 40% reduction in the number of explorations in the escape enclosure in each case.

Series [2] deals with isolated fundus of rats (serotonine). As to the kind of experiment: Antiserotonine: contractions of the isolated fundus of rats provoked by serotonine. The note with it: in vitro. The text has this: (§1) For purposes of comparison, compounds of the formula (I) were compared, as to their antiserotonine properties, with a respresentative sampling of compounds disclosed in U.S. Pat. No. 3,726,900. The comparison compounds tested have the formula [drawing 23]

Series [3] deals with ventricular fibrillations caused by inhaling chloroform. Kind of series: Antiarythmic: ventricular fibrillations caused by inhaling chloroform in mouse. The series is classed as in vivo. The note with it: ip, intraperitoneal, read-out: Antagonism to fibrillations caused by chloroform with a mouse, DE50. The source says:
Administered intraperitoneally, the compounds of formula (I) are able to protect the mouse against ventricular fibrillations caused by inhaling chloroform.

Series [4] is described as follows: Acute toxicity / mortality, oral, mice. The note with it: mouse, in vivo; for mortality: read-out: Percentage of mortality with mice; for LD50: mice, oral, Table XI, read-out: LD50 (mice). The series is classed as in vivo. The text has this: (§2) As is shown by the preceding results and by those given in Table XIV below, the difference between pharmacologically active doses and lethal doses is sufficiently great to allow the use of compounds of formula (I) in therapeutics.

The subject of series [5] is coronary vessels of the isolated heart of a guinea pig. Kind of series: Vasodilatory: flow in coronary vessels of isolated heart of a guinea pig. The note with it: 0.5 μg/ml in perfusion liquid. As for the experimental part:
The compounds of formula (I) are able to increase the flow in the coronary vessels of the isolated heat of a guinea pig when they are added to the perfusion liquid of this organ. As an example, by adding 0.5 μg/ml of the compound code number 71562 to the perfusion liquid of the isolated heart of a guinea pig, a 45% increase in the flow of the coronary vessels was observed.

The test system of series [6] is painful stretchings following intraperitoneal injection of acetic acid. Kind of series: Analgesic: painful stretchings following intraperitoneal acetic acid in mouse. In kind it is in vivo. The note with it: 100 mg/kg/PO, read-out: Percentage reduction in the number of painful stretchings. The source says:
The compounds of formula (I) administered orally to a mouse are capable of reducing the number of painful stretchings following the intraperitoneal injection of acetic acid.

Series [7] has as its system urinary elimination. Kind of series: Diuretic: volume of urine in mouse. The note with it: 4 hours, versus controls, read-out: Percentage increase in urinary elimination; for change in vivo at 50 mg/kg: 50 mg/kg/PO; for change in vivo at 12.5 mg/kg: 12.5 mg/kg/PO. The series is classed as in vivo. Here is the method:
The compounds of formula (I) administered orally to a mouse simultaneously with a volume of 1 ml of sodium chloride isotonic solute per 25 g of body weight are able to cause an increase of the volume of urine given compared with controls, this volume being measured for the 4 hours following administration.

In series [8] the test system is ptosis caused by reserpine. Kind of series: Anti-depressive: antagonism against ptosis caused by intravenous reserpine. In kind it is in vivo. The note with it: for ED50: po, Table XII, read-out: Antagonism against ptosis caused by reserpine, DE50. Here is the method: (§3) In this regard, the compounds of formula I differ unexpectedly from the compounds of U.S. Pat. No. 3,726,900, as shown by comparative testing.
(§4) The anti-depressive properties of additional analog compounds were tested by the same tests. In these tests, the comparison compounds had the formula [drawing 28] The specific compounds tested and the test results are indicated in Table XIII.

Series [9] concerns isolated duodenum of a rat (barium chloride). Kind of series: Spasmolytic: contraction by barium chloride of isolated duodenum of a rat. Here is the method:
Compounds of formula I, introduced in the survival medium, are capable of opposing the contacting action of barium chloride on the isolated duodenum of a rat. This activity is determined either by taking papaverine as the standard or by calculating the DE50 of the compound tested.

Series [10] relates to mice. Kind of series: Acute toxicity / mortality, oral, mice. The note with it: oral; Table XII. The series is classed as in vivo.
Excerpt: as §2

Series [11] has as its system gastric ulcers (Shay ulcers). Kind of series: Antiulcerous: gastric ulcers caused in a rat by ligature of the pylorus (Shay ulcers). In kind it is in vivo. The note with it: 50 mg/kg, intraduodenal. As for the experimental part: Compounds of formula (I) administered intraduodenally reduce the size of gastric ulcers caused in a rat by ligature of the pylorus (Shay ulcers). As examples, the intradeuodenal administration of 50 mg/kg of the compounds of code numbers 72143 and 7251 bring about a 70% and 65% reduction respectively of the Shay ulcer.

The test system of series [12] is isolated ileum of a guinea pig (histamine). As to the kind of experiment: Antihistamine: contraction by histamine of isolated ileum of a guinea pig. Here is the method: The compounds of formula (I) introduced in the survival medium are able to oppose the contracting action of histamine on the isolated ileum of a guinea pig. This activity is calculated by the DE50 of the tested compounds.

In series [13] the test system is local edema caused by carraghenine. Kind of series: Antiinflammatory: local plantar edema caused by carraghenine in rat. The series is classed as in vivo. The source says: These properties bring about a reduction of the local edema, caused by injecting a rat under the plantar with a phlogogenic agent such as carraghenine, following oral administration of compounds of formula (I).

For series [14], the system named is bronchoconstrictions provoked by serotonine. As to the kind of experiment: Antiserotonine: bronchoconstrictions provoked by intravenous serotonine in guinea pigs (Konzett and Rossler test). The note with it: Cavia porcellus, serotonine bronchoconstriction, read-out: Test of Konzett and Rossler DE50. The series is classed as in vivo.
Excerpt: as §1

For series [15], the system named is isolated tied uterus (serotonine). Kind of series: Antiserotonine: contractions of the isolated tied uterus provoked by serotonine. The note with it: in vitro.
Excerpt: as §1

The test system of series [16] is lethal effect of yohimbine. Kind of series: Anti-depressive: potentialization of lethal effect of yohimbine. In kind it is in vivo. The note with it: Table XII.
Series [17] concerns lethal effect of yohimbine. The description is as above. In kind it is in vivo. The note with it: at 100 mg/kg/PO. Here is the method: as §3, §4
For series [18], the system named is cough caused by stimulation of the upper laryngeal nerve. Kind of series: Anti-cough: cough caused by stimulation of the upper laryngeal nerve in an anaesthetized cat. The series is classed as in vivo. The note with it: 25 mg/kg/ID.
For series [19], the system named is respiratory depression caused by morphine. Kind of series: Respiratory analeptic: respiratory depression caused by morphine in anaesthetized guinea pig. In kind it is in vivo. The note with it: 5 mg/kg/IV. Here is the method: The compounds of formula (I) administered intravenously to an anaesthetized guinea pig are capable of opposing respiratory depression caused by morphine. As an example, with a dose of 5 mg/kg/IV, compound 70358 increased respiratory frequency by 65%.

Where [20] appears, read: at 50 mg/kg/PO, result in words.

As for `O=C(CN1CCN(CC2COC3(O2)c2ccccc2C=Cc2ccccc23)CC1)N1CCCC1` (centres unmarked) [compound 71562], the “Reduction in the number of explorations in the escape enclosure” value in series [1] was found to be 40%. The compound also registered an Antagonisms against contractions of fundus of rat, DE50 in series [2] of 0.1 µg/mL. For the same compound, in series [3], the ED50 worked out at 125 mg/kg. Also, the mortality in series [4] (2000 mg/kg/PO) was approximately 50%. Further, the LD50 in [4] was 2000 mg/kg. The “Increase in the flow of the coronary vessels” value in [5] was found to be 45%. In addition, the inhibition in vivo at 100 mg/kg in [6] was 47%. Besides, the change in vivo at 50 mg/kg in [7] was found to be 70%.
On to `CN(C)C(=O)CN1CCN(CC2COC3(O2)c2ccccc2C=Cc2ccccc23)CC1` (centres unmarked) [compound 7251], for which the “Antagonism against ptosis caused by reserpine” value (“Antagonism … by reserpine” below) in series [8] (setting [20]) is reported as “Inactive”. For the same compound, the “DE50 (spasmolytic)” value in series [9] is 3.50 µg/mL. For the same compound, the ED50 in [3] worked out at 100 mg/kg. Also, the mortality in series [4] (2000 mg/kg/PO) came out at 0%. For the same compound, the LD50 in [4] was more than 2000 mg/kg; in series [10], more than 2000 mg/kg/P.O. For the same compound, in series [11], the “Reduction of the Shay ulcer” value is listed as 65%. In addition, the inhibition in vivo at 100 mg/kg in series [6] was 50%. Further, in [7], the change in vivo at 50 mg/kg was found to be 45%.
Regarding `OCC(O)CN1CCN(CC2COC3(O2)c2ccccc2C=Cc2ccccc23)CC1` (centres unmarked) [compound 72196], the “DE50 (spasmolytic)” value in series [9] is 0.25 µg/mL. For the same compound, the “Antihistamine activity DE50” value in series [12] is 1 µg/mL. For the same compound, in [4] (1100 mg/kg/PO), the mortality is approximately 50%. In addition, the LD50 in [4] amounted to 1100 mg/kg. In series [6], the inhibition in vivo at 100 mg/kg turned out to be 45%. Besides, the “Percentage reduction of the edema” value in [13] (100 mg/kg/PO) turned out to be 70%. The change in vivo at 12.5 mg/kg in series [7] is 40%.
With `O=C(CN1CCN(CC2COC3(O2)c2ccccc2C=Cc2ccccc23)CC1)N1CCOCC1` (centres unmarked) [compound 71564], the Antagonisms against contractions of fundus of rat, DE50 in series [2] came to 0.74 µg/mL. In addition, the “DE50 (spasmolytic)” value in [9] worked out at 2.50 µg/mL. The ED50 was determined as 0.05 mg/kg in series [14] and 200 mg/kg in [3]. Moreover, in [4] (3500 mg/kg/PO), the mortality was approximately 50%. The LD50 in series [4] is 3500 mg/kg. The same compound displayed an Antagonisms against contractions of tied uterus, DE50 in [15] of 0.001 µg/mL. Besides, the change in vivo at 12.5 mg/kg in [7] was 50%.
With `CN(C)CC1COC2(O1)c1ccccc1CCc1ccccc12` (centres unmarked) [compound 69257, reference compound], the ED50 was determined as 35 mg/kg in series [8] and 0.4 mg/kg in series [14]. For the same compound, the LD50 in series [4] was found to be 550 mg/kg. The “Potentialization of lethal effect of yohimbine, DE50” value in [16] was 10 mg/kg/PO.
Regarding `CN1CCN(CC2COC3(O2)c2ccccc2C=Cc2ccccc23)CC1` (centres unmarked) [compound 72143], in series [8] (setting [20]), the “Antagonism … by reserpine” value is given as “Inactive”. Also, the “DE50 (spasmolytic)” value in series [9] amounted to 3.75 µg/mL. In series [12], the “Antihistamine activity DE50” value turned out to be 0.25 µg/mL. Moreover, the mortality in [4] (300 mg/kg/PO) is approximately 50%. Moreover, in [4], the LD50 turned out to be 300 mg/kg. For the same compound, the “Reduction of the Shay ulcer” value in series [11] turned out to be 70%. For the same compound, the “Percentage reduction of the edema” value in series [13] (30 mg/kg/PO) was 70%. The change in vivo at 25 mg/kg in series [7] (25 mg/kg/PO) was found to be 70%.
In the case of `CCCNC(=O)CN1CCN(CC2COC3(O2)c2ccccc2C=Cc2ccccc23)CC1` (centres unmarked) [compound 72142], the “Potentialization of lethal effect of yohimbine” value in series [17] is 40%. The “Reduction in the number of explorations in the escape enclosure” value in series [1] is recorded as 40%. The “Antagonism … by reserpine” value in series [8] (at 100 mg/kg/PO) was “Inactive”. In series [9], the “DE50 (spasmolytic)” value was 2.50 µg/mL. Also, in [12], the “Antihistamine activity DE50” value was 0.6 µg/mL. Moreover, the ED50 stood at 0.6 mg/kg in [14] and 85 mg/kg in series [3]. In series [4] (1650 mg/kg/PO), the mortality was approximately 50%. Moreover, in series [4], the LD50 stood at 1650 mg/kg. Moreover, the inhibition in vivo at 100 mg/kg in series [6] came out at 70%. In addition, the change in vivo at 50 mg/kg in series [7] is 55%.
For the compound `CN(C)CC1COC2(O1)c1ccccc1C=Cc1ccccc12` (centres unmarked) [compound 70312, reference compound], the ED50 in series [8] came to 13 mg/kg; in series [14] it was 0.43 mg/kg. The LD50 in series [4] stood at 480 mg/kg. Moreover, the “Potentialization of lethal effect of yohimbine, DE50” value in [16] is given as 46 mg/kg/PO.
As to `CN1CCN(CC2COC3(O2)c2ccccc2CCc2ccccc23)CC1` (centres unmarked) [compound 70358], in [17], the “Potentialization of lethal effect of yohimbine” value was determined as 40%. Besides, the “Antagonism … by reserpine” value in series [8] (at 100 mg/kg/PO) is “Inactive”. Also, in series [9] (relative to papaverine as the standard), the Spasmolytic activity is listed as 1.5 × papaverine. In series [4] (1000 mg/kg/PO), the mortality is approximately 50%. Besides, in [4], the LD50 was found to be 1000 mg/kg. Besides, in [18], the “Reduction of cough, duration” value is reported as more than 60 mm and the “Reduction of cough, intensity” value amounted to 100%. Besides, the inhibition in vivo at 100 mg/kg in [6] turned out to be 43%. In series [19], the “Increase in respiratory frequency” value is given as 65%.
